Test results published in PubChem BioAssay AID2060883 (Molecular Pharmacology Branch, DTP, NCI, 2025).
pIC50: −log10 of the molar value.

Test system: 843782-103-R-J1-PDC complex spheroid viability
Experiment: Anticancer human tumor 843782-103-R-J1-PDC patient-derived lung adenocarcinoma cell line growth inhibition [RAS]
Settings: for pIC50: curve of first compound; for viability, T/C: stronger effect = lower value
In short: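 Tumour cells grown as complex spheroids with HUVEC endothelial cells and mesenchymal stem cells, treated with RAS pathway inhibitor combinations. Each agent spans half-log steps from near clinical Cmax, or 10 microM where Cmax is unknown.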

[1] = second compound 0.00316 µM, first compound 0.0316 µM
[2] = second compound 0.00316 µM, first compound 0.1 µM
[3] = second compound 0.00316 µM, first compound 0.316 µM
[4] = second compound 0.00316 µM, first compound 1 µM
[5] = second compound 0.00316 µM, first compound 3.16 µM
[6] = second compound 0.00316 µM, first compound 10 µM
[7] = second compound 0.01 µM, first compound 0.0316 µM
[8] = second compound 0.01 µM, first compound 0.1 µM
[9] = second compound 0.01 µM, first compound 0.316 µM
[10] = second compound 0.01 µM, first compound 1 µM
[11] = second compound 0.01 µM, first compound 3.16 µM
[12] = second compound 0.01 µM, first compound 10 µM
[13] = second compound 0.0316 µM, first compound 0.0316 µM
[14] = second compound 0.0316 µM, first compound 0.1 µM
[15] = second compound 0.0316 µM, first compound 0.316 µM
[16] = second compound 0.0316 µM, first compound 1 µM
[17] = second compound 0.0316 µM, first compound 3.16 µM
[18] = second compound 0.0316 µM, first compound 10 µM
[19] = second compound 0.1 µM, first compound 0.0316 µM
[20] = second compound 0.1 µM, first compound 0.1 µM
[21] = second compound 0.1 µM, first compound 0.316 µM
[22] = second compound 0.1 µM, first compound 1 µM
[23] = second compound 0.1 µM, first compound 3.16 µM
[24] = second compound 0.1 µM, first compound 10 µM
[25] = second compound 0.316 µM, first compound 0.0316 µM
[26] = second compound 0.316 µM, first compound 0.1 µM
[27] = second compound 0.316 µM, first compound 0.316 µM
[28] = second compound 0.316 µM, first compound 1 µM
[29] = second compound 0.316 µM, first compound 3.16 µM
[30] = second compound 0.316 µM, first compound 10 µM
[31] = second compound 1 µM, first compound 0.0316 µM
[32] = second compound 1 µM, first compound 0.1 µM
[33] = second compound 1 µM, first compound 0.316 µM
[34] = second compound 1 µM, first compound 1 µM
[35] = second compound 1 µM, first compound 3.16 µM
[36] = second compound 1 µM, first compound 10 µM
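Note: viability read after seven days of compound exposure.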

CC(C)NCC(C(=O)N1CCN(c2ncnc3c2C(C)CC3O)CC1)c1ccc(Cl)cc1 (stereo unspecified) + C=CC(=O)N1CCN(c2nc(OCC3CCCN3C)nc3c(F)c(-c4nc(N)cc(C)c4C(F)(F)F)c(Cl)cc23)C(C)C1
pIC50 (second compound 0.00316 µM): 6.14 | pIC50 (second compound 0.01 µM): 6.15 | pIC50 (second compound 0.0316 µM): 6.17 | pIC50 (second compound 0.1 µM): 6.17 | pIC50 (second compound 0.316 µM): 6.19 | pIC50 (second compound 1 µM): 6.06 | viability, T/C [1]: 91.6% | viability, T/C [2]: 81.3% | viability, T/C [3]: 70% | viability, T/C [4]: 42.9% | viability, T/C [5]: 18.8% | viability, T/C [6]: 8.64% | viability, T/C [7]: 88.5% | viability, T/C [8]: 85.1% | viability, T/C [9]: 75.1% | viability, T/C [10]: 38.3% | viability, T/C [11]: 19.2% | viability, T/C [12]: 8.6% | viability, T/C [13]: 89% | viability, T/C [14]: 81.2% | viability, T/C [15]: 70.6% | viability, T/C [16]: 38.8% | viability, T/C [17]: 17.3% | viability, T/C [18]: 6.65% | viability, T/C [19]: 91.5% | viability, T/C [20]: 77.9% | viability, T/C [21]: 65.4% | viability, T/C [22]: 44.7% | viability, T/C [23]: 17.2% | viability, T/C [24]: 8.54% | viability, T/C [25]: 91.5% | viability, T/C [26]: 79.7% | viability, T/C [27]: 67.2% | viability, T/C [28]: 40.1% | viability, T/C [29]: 18.2% | viability, T/C [30]: 8.75% | viability, T/C [31]: 89.2% | viability, T/C [32]: 74.2% | viability, T/C [33]: 72.2% | viability, T/C [34]: 47.9% | viability, T/C [35]: 20.7% | viability, T/C [36]: 7.97%

CCC(CC)c1cc(NC2CCC(N)C2)n2nccc2n1 (stereo unspecified) + C=CC(=O)N1CCN(c2nc(OCC3CCCN3C)nc3c(F)c(-c4nc(N)cc(C)c4C(F)(F)F)c(Cl)cc23)C(C)C1
pIC50 (second compound 0.00316 µM): 5.85 | pIC50 (second compound 0.01 µM): 5.82 | pIC50 (second compound 0.0316 µM): 5.85 | pIC50 (second compound 0.1 µM): 5.83 | pIC50 (second compound 0.316 µM): 5.85 | pIC50 (second compound 1 µM): 5.79 | viability, T/C [1]: 99.4% | viability, T/C [2]: 87.9% | viability, T/C [3]: 91.9% | viability, T/C [4]: 71.3% | viability, T/C [5]: 1.31% | viability, T/C [6]: 0.48% | viability, T/C [7]: 94.5% | viability, T/C [8]: 88.3% | viability, T/C [9]: 84.7% | viability, T/C [10]: 76.2% | viability, T/C [11]: 1.43% | viability, T/C [12]: 0.54% | viability, T/C [13]: 91.6% | viability, T/C [14]: 88.5% | viability, T/C [15]: 83.3% | viability, T/C [16]: 71.2% | viability, T/C [17]: 1.09% | viability, T/C [18]: 0.49% | viability, T/C [19]: 79.9% | viability, T/C [20]: 87.6% | viability, T/C [21]: 90.6% | viability, T/C [22]: 75.3% | viability, T/C [23]: 1.17% | viability, T/C [24]: 0.4% | viability, T/C [25]: 91.7% | viability, T/C [26]: 84.8% | viability, T/C [27]: 88.6% | viability, T/C [28]: 71% | viability, T/C [29]: 1.54% | viability, T/C [30]: 0.46% | viability, T/C [31]: 88.4% | viability, T/C [32]: 87.1% | viability, T/C [33]: 88.7% | viability, T/C [34]: 86.1% | viability, T/C [35]: 0.8% | viability, T/C [36]: 0.59%

CCN1CCN(Cc2ccc(Nc3ncc(F)c(-c4cc(F)c5nc(C)n(C(C)C)c5c4)n3)nc2)CC1 + C#Cc1c(F)ccc2cc(O)cc(-c3ncc4c(N5CC6CCC(C5)N6)nc(OCC56CCCN5CC(F)C6)nc4c3F)c12
pIC50 (second compound 0.0316 µM): < 6.00 | pIC50 (second compound 0.1 µM): < 6.00 | pIC50 (second compound 0.316 µM): < 6.00 | pIC50 (second compound 1 µM): 6.04 | pIC50 (second compound 3.16 µM): 6.38 | pIC50 (second compound 10 µM): 7.12 | viability, T/C (second compound 0.0316 µM, first compound 0.00316 µM): 108% | viability, T/C (second compound 0.0316 µM, first compound 0.01 µM): 93% | viability, T/C [13]: 101% | viability, T/C [14]: 105% | viability, T/C [15]: 101% | viability, T/C [16]: 71% | viability, T/C (second compound 0.1 µM, first compound 0.00316 µM): 107% | viability, T/C (second compound 0.1 µM, first compound 0.01 µM): 104% | viability, T/C [19]: 93.3% | viability, T/C [20]: 97.3% | viability, T/C [21]: 97.1% | viability, T/C [22]: 75% | viability, T/C (second compound 0.316 µM, first compound 0.00316 µM): 107% | viability, T/C (second compound 0.316 µM, first compound 0.01 µM): 101% | viability, T/C [25]: 103% | viability, T/C [26]: 99.3% | viability, T/C [27]: 86.7% | viability, T/C [28]: 65% | viability, T/C (second compound 1 µM, first compound 0.00316 µM): 105% | viability, T/C (second compound 1 µM, first compound 0.01 µM): 92.6% | viability, T/C [31]: 93.9% | viability, T/C [32]: 89.5% | viability, T/C [33]: 75.9% | viability, T/C [34]: 46.9% | viability, T/C (second compound 3.16 µM, first compound 0.00316 µM): 87.2% | viability, T/C (second compound 3.16 µM, first compound 0.01 µM): 88.6% | viability, T/C (second compound 3.16 µM, first compound 0.0316 µM): 79.5% | viability, T/C (second compound 3.16 µM, first compound 0.1 µM): 69.4% | viability, T/C (second compound 3.16 µM, first compound 0.316 µM): 53.1% | viability, T/C (second compound 3.16 µM, first compound 1 µM): 40% | viability, T/C (second compound 10 µM, first compound 0.00316 µM): 67% | viability, T/C (second compound 10 µM, first compound 0.01 µM): 60.9% | viability, T/C (second compound 10 µM, first compound 0.0316 µM): 57.6% | viability, T/C (second compound 10 µM, first compound 0.1 µM): 46.2% | viability, T/C (second compound 10 µM, first compound 0.316 µM): 40.6% | viability, T/C (second compound 10 µM, first compound 1 µM): 26.6%
